Converted amounts (≈) assume the structure as drawn.
How the values were obtained:
Assay type in all cases: cell-based
Strep. pneumoniae = test: antimicrobial activity, MIC by agar dilution method, Strep. pneumoniae; set-up: key to Minimal Inhibitory Concentration: R: resistant; conditions: 3 test strains, MIC refers to over 90% of tested strains; for MIC90: Streptococcus pneumoniae, read-out: Minimal Inhibitory Concentration
Description: (§1) The antimicrobial activity of some compounds of the present invention was tested on the laboratory strain Sarcina lutea and on 50 various strains isolated from fresh patients' samples. The minimal inhibitory concentration (MIC) was determined by the agar dilution method as described by M. D. Finegold and J. W. Martin, Diagnostic Microbiology, Mosby Comp., St. Louis 1982, p. 536-540.

Strep. faecalis = test: antimicrobial activity, MIC by agar dilution method, Strep. faecalis; set-up: key to Minimal Inhibitory Concentration: R: resistant; conditions: 17 test strains, MIC refers to over 90% of tested strains; for MIC90: Enterococcus faecalis, read-out: Minimal Inhibitory Concentration
Description: as §1

Strep. agalact. = test: antimicrobial activity, MIC by agar dilution method, Strep. agalact.; set-up: key to Minimal Inhibitory Concentration: R: resistant; conditions: 2 test strains, MIC refers to over 90% of tested strains; for MIC90: read-out: Minimal Inhibitory Concentration
Description: as §1

Staph. aureus = test: antimicrobial activity, MIC by agar dilution method, Staph. aureus; set-up: key to Minimal Inhibitory Concentration: R: resistant; conditions: 13 test strains, MIC refers to over 90% of tested strains; for MIC90: Staphylococcus aureus, read-out: Minimal Inhibitory Concentration
Description: as §1

Staph. saproph. = test: antimicrobial activity, MIC by agar dilution method, Staph. saproph.; set-up: key to Minimal Inhibitory Concentration: R: resistant; conditions: 6 test strains, MIC refers to over 90% of tested strains; for MIC90: read-out: Minimal Inhibitory Concentration
Description: as §1

Sarcina lutea = test: antimicrobial activity, MIC by agar dilution method, Sarcina lutea; conditions: Micrococcus luteus, 4 test strains, MIC refers to over 90% of tested strains, read-out: Minimal Inhibitory Concentration
Description: as §1

Row | MIC90 (Strep. pneumoniae) | MIC90 (Strep. faecalis) | MIC90 (Strep. agalact.) | MIC90 (Staph. aureus) | MIC90 (Staph. saproph.) | MIC90 (Sarcina lutea) | SMILES | Minimal Inhibitory Concentration (Strep. pneumoniae) | Minimal Inhibitory Concentration (Strep. faecalis) | Minimal Inhibitory Concentration (Strep. agalact.) | Minimal Inhibitory Concentration (Staph. saproph.) | Minimal Inhibitory Concentration (Staph. aureus)
1 | 0.5 µg/mL (≈ 0.543 µM) | 4 to 8 µg/mL (≈ 4.35 to 8.69 µM) | 1 to 2 µg/mL (≈ 1.09 to 2.17 µM) | 2 to 4 µg/mL (≈ 2.17 to 4.35 µM) | 1 to 2 µg/mL (≈ 1.09 to 2.17 µM) | 0.5 µg/mL (≈ 0.543 µM) | CCC1OC(=O)CC(O)C(C)C(OC2OC(C)C(OC3CC(C)(O)C(O)C(C)O3)C(N(C)C)C2O)C(CC=O)CC(C)C(=O)CCC(C)CC1COC1OC(C)C(O)C(OC)C1OC (centres unmarked) [II, 10,11,12,13-tetrahydro tylosin] |  |  |  |  | 
2 |  |  |  | 32 µg/mL (≈ 34.7 µM) |  | 1 µg/mL (≈ 1.08 µM) | CCC1OC(=O)CC(O)C(C)C(OC2OC(C)C(OC3CC(C)(O)C(O)C(C)O3)C(N(C)C)C2O)C(CCO)CC(C)C(=O)CCC(C)CC1COC1OC(C)C(O)C(OC)C1OC (centres unmarked) [III, 10,11,12,13-tetrahydro relomycin] | R | R | R | R | 
3 | 0.5 µg/mL (≈ 0.542 µM) | 8 to 32 µg/mL (≈ 8.68 to 34.7 µM) | 2 to 8 µg/mL (≈ 2.17 to 8.68 µM) | 4 µg/mL (≈ 4.34 µM) | 2 to 4 µg/mL (≈ 2.17 to 4.34 µM) | 0.5 µg/mL (≈ 0.542 µM) | CCC1OC(=O)CC(O)C(C)C(OC2OC(C)C(OC3CC(C)(O)C(O)C(C)O3)C(N(C)C)C2O)C(CC=O)CC(C)C(O)CCC(C)CC1COC1OC(C)C(O)C(OC)C1OC (centres unmarked) [VI, 9-deoxo-9-hydroxy-10,11,12,13-tetrahydro tylosin] |  |  |  |  | 
4 | 0.5 µg/mL (≈ 0.537 µM) | 1 to 4 µg/mL (≈ 1.07 to 4.3 µM) | 0.5 µg/mL (≈ 0.537 µM) | 1 to 4 µg/mL (≈ 1.07 to 4.3 µM) | 0.5 to 2 µg/mL (≈ 0.537 to 2.15 µM) | 0.5 µg/mL (≈ 0.537 µM) | CCC1OC(=O)CC(O)C(C)C(OC2OC(C)C(OC3CC(C)(O)C(O)C(C)O3)C(N(C)C)C2O)C(CC=NO)CC(C)C(=O)C=CC(C)=CC1COC1OC(C)C(O)C(OC)C1OC (centres unmarked) [XII, Tylosin aldoxime] |  |  |  |  | 
5 | 1 µg/mL (≈ 1.07 µM) |  |  | 8 to 16 µg/mL (≈ 8.55 to 17.1 µM) | 8 µg/mL (≈ 8.55 µM) | 0.5 µg/mL (≈ 0.535 µM) | CCC1OC(=O)CC(O)C(C)C(OC2OC(C)C(OC3CC(C)(O)C(O)C(C)O3)C(N(C)C)C2O)C(CC=NO)CC(C)C(=O)CCC(C)CC1COC1OC(C)C(O)C(OC)C1OC (centres unmarked) [XIX, 10,11,12,13-tetrahydro tylosin aldoxime] |  |  |  |  | 
6 | 0.5 µg/mL (≈ 0.536 µM) |  | 64 µg/mL (≈ 68.6 µM) | 64 µg/mL (≈ 68.6 µM) | 4 to 16 µg/mL (≈ 4.29 to 17.1 µM) | 0.5 µg/mL (≈ 0.536 µM) | CCC1OC(=O)CC(O)C(C)C(OC2OC(C)C(OC3CC(C)(O)C(O)C(C)O3)C(N(C)C)C2O)C(CCO)CC(C)C(=NO)C=CC(C)=CC1COC1OC(C)C(O)C(OC)C1OC (centres unmarked) [XVIII, relomycin oxime] |  | R |  |  | 
7 | 2 to 4 µg/mL (≈ 2.1 to 4.21 µM) |  |  | 16 to 32 µg/mL (≈ 16.8 to 33.7 µM) | 16 µg/mL (≈ 16.8 µM) | 1 µg/mL (≈ 1.05 µM) | CCC1OC(=O)CC(O)C(C)C(OC2OC(C)C(OC3CC(C)(O)C(O)C(C)O3)C(N(C)C)C2O)C(CC=NO)CC(C)C(=NO)CCC(C)CC1COC1OC(C)C(O)C(OC)C1OC (centres unmarked) [XX, 10,11,12,13tetrahydro tylosin dioxime] |  |  |  |  | 
8 | 64 µg/mL (≈ 68.3 µM) |  |  |  |  | 0.5 µg/mL (≈ 0.534 µM) | CCC1OC(=O)CC(O)C(C)C(OC2OC(C)C(OC3CC(C)(O)C(O)C(C)O3)C(N(C)C)C2O)C(CCO)CC(C)C(=NO)CCC(C)CC1COC1OC(C)C(O)C(OC)C1OC (centres unmarked) [XXIII, 10,11,12,13-tetrahydro relomycin oxime] |  | R | R | R | R

Row | SMILES | MIC90 (Strep. pneumoniae) | MIC90 (Strep. faecalis) | MIC90 (Strep. agalact.) | MIC90 (Staph. aureus) | MIC90 (Staph. saproph.) | MIC90 (Sarcina lutea) | Minimal Inhibitory Concentration (Strep. pneumoniae) | Minimal Inhibitory Concentration (Strep. faecalis) | Minimal Inhibitory Concentration (Strep. agalact.) | Minimal Inhibitory Concentration (Staph. saproph.) | Minimal Inhibitory Concentration (Staph. aureus)
9 | CCC1OC(=O)CC(O)C(C)C(OC2OC(C)C(OC3CC(C)(O)C(O)C(C)O3)C(N(C)C)C2O)C(CCO)CC(C)C(=O)C=CC(C)=CC1COC1OC(C)C(O)C(OC)C1OC (centres unmarked) [Ia, 20-deoxo-20-hydroxy tylosin, reference compound] | 0.5 to 1 µg/mL (≈ 0.545 to 1.09 µM) | 64 µg/mL (≈ 69.7 µM) | 16 µg/mL (≈ 17.4 µM) | 4 to 16 µg/mL (≈ 4.36 to 17.4 µM) | 1 to 16 µg/mL (≈ 1.09 to 17.4 µM) | 1 µg/mL (≈ 1.09 µM) |  |  |  |  | 

Source: patent publication US5023240A, “Derivatives of tylosin and 10,11,12,13-tetrahydro tylosin and their use in pharmaceuticals” (Sour Pliva, priority 1987, dated 1991)
